Measurements reported in BindingDB's records for doi:10.1021/jm00089a016 (Abbott Laboratories, 1992).

assay: In vitro intrinsic binding affinity at platelet activating factor receptor using rabbit platelet membranes

Row | Structure (SMILES) | Ki [µM]
1 | COc1cc(C(C)CCCc2ccc(F)cc2)cc2c1C1=C(CCN(Cc3ccccn3)C1)C(C)(C)O2 (stereo unspecified) | 4.21
2 | CC1CSC2=C1c1c(O)cc(C(C)CCCc3ccc(F)cc3)cc1OC2(C)C (stereo unspecified) | 43.8
3 | CNC(=O)CN1CCC2=C(C1)c1c(O)cc(C(C)CCCc3ccc(F)cc3)cc1OC2(C)C (stereo unspecified) | 0.331
4 | CNC(=O)CN1CCC(C(C)(C)O)=C(c2c(O)cc(C(C)CCCc3ccc(F)cc3)cc2O)C1 (stereo unspecified) | 23.5
5 | COc1cc(C(C)CCCc2ccc(F)cc2)cc2c1C1=C(CCN(CCC(=O)O)C1)C(C)(C)O2 (stereo unspecified) | 4.4
6 | C#CCN1CCC2=C(C1)c1c(O)cc(C(C)CCCc3ccc(F)cc3)cc1OC2(C)C (stereo unspecified) | 3.25
7 | CCCCCC(C)C(C)c1cc(O)c2c(c1)OC(C)(C)C1=C2CN(CC(=O)NC)CC1 (stereo unspecified) | 3.68
8 | CNC(=O)CN1CCC2=C(C1)c1c(O)cc(C(C)C)cc1OC2(C)C | 9
9 | CC(CCCc1ccc(F)cc1)c1cc(O)c2c(c1)OC(C)(C)C1=C2CN(CC(=O)N(C)C)CC1 (stereo unspecified) | 15.8
10 | COc1cc(C(C)CCCc2ccc(F)cc2)cc2c1C1=C(CCN(CCCCC(=O)O)C1)C(C)(C)O2 (stereo unspecified) | 5.5
11 | CNC(=O)CCCN1CCC2=C(C1)c1c(O)cc(C(C)CCCc3ccc(F)cc3)cc1OC2(C)C (stereo unspecified) | 20.7
12 | CNC(=O)CN1CCC2=C(C1)c1c(OC)cc(C(C)CCCc3ccc(F)cc3)cc1OC2(C)C (stereo unspecified) | 0.142
13 | CNC(=O)CN1CCC2=C(C1)c1c(OCC(=O)O)cc(C(C)CCCc3ccc(F)cc3)cc1OC2(C)C (stereo unspecified) | 0.925
14 | COc1cc(C(C)CCCc2ccc(F)cc2)cc2c1C1=C(CCN(CCCCCC(=O)O)C1)C(C)(C)O2 (stereo unspecified) | 25
15 | CC(CCCc1ccc(F)cc1)c1cc(O)c2c(c1)OC(C)(C)C1=C2CN(C(=O)CO)CC1 (stereo unspecified) | 20.5
16 | CNC(=O)CN(C)CC1=CC(C)(C)Oc2cc(C(C)CCCc3ccc(F)cc3)cc(O)c21 (stereo unspecified) | 1.57
